US20040106093A1, “Myb-transformed blood cells and their use for active ingredient screening” (priority 2001, published 2004)

Key:
Assay type in all cases: cell-based, chicken
bFGF/v-myb-cells [1] = assay: Proliferation assay of bFGF-stimulated bFGF/v-myb-cells with specific signalling inhibitors (3H-thymidine incorporation); details: bFGF 25 ng/ml, FIG. 5B; for reduction of bFGF induced bFGF/v-myb cell proliferation: GF 109203X 10 nM, Cyclosporin A 10 nM, KN-62 1 μM (methods); for effect on bFGF induced bFGF/v-myb cell proliferation: proliferation without inhibitor set 100%, C
Protocol: (§1) Cell proliferation was measured as ratio of DNA-synthesis by ^3H-thymidin-incorporation or use CellTiter96® (Promega). Briefly, the cells (4×10^4 cells/100 μl) were incubated in CFU-E-Medium (see above) with 0.8 μCi ^3H-thymidine (specific activity 29 Ci/mmol; Amersham, UK) for 2 hours at 37° C., brought onto filter plates and subjected to scintillation counting. The average values from triplicate samples were determined. The Celltiter96 MTS-assay was for 2 hours. Heparin (B. Braun, Melsungen, Germany) was used at 5 μg/ml. Inhibitors were used at the following concentrations: PD98059 (5 μM), PP2 (100 nM), U-73122 (1 μM), Worthmannin (100 nM), Cyclosporin A (10 nM), GF 109203X (10 nM) and KN-62 (1 μM) (all from Calbiochem).
(B) The bFGF/v-myb-cells were stimulated with bFGF and with specific inhibitors (for details see methods). Cell proliferation was measured in (A) per cent of proliferation in response to bFGF (25 ng/ml) and specific inhibitor is shown. Proliferation without inhibitor was arbitrarily set 100%.
(C) Dose response curve of the PLCy inhibitor U-73122 on bFGF/v-myb-cells in the presence of bFGF (25 ng/ml). Cell proliferation was measured by ^3H-thymidine incorporation assay as in (A). Two independent experiments arc shown.

bFGF/v-myb-cells [2] = assay: Erythroid differentiation assay (anaemic serum plus insulin)
Protocol: To produce erythroid differentiation, cells were incubated in CFU-E-medium without ChS (2×10^6 cells/ml) supplemented with 3% anaemic chicken serum (as source for erythropoietin) plus 10 ng/ml recombinant human insulin (Novo Nordisk) in the presence or absence of 25 ng/ml bFGF. Erythroid differentiation was assessed by (1) determining haemoglobin accumulation in cytospin preparations that stained with neutral, and Diff-Quik (Baxter, Switzerland), or in haemoglobin assay (Beug et al., 1995, Methods Enzymol, 254, 41-76) (2), measuring reduction in cell size with the CASY-1 Cell Counter and Analyser System; and (3) loss of proliferative potential in ^3H-thymidine incorporation assays. Photographs were taken and processed as above.
Differentiation properties of bFGF/v-myb erythroid progenitor cells. Kinetics of the different differentiation parameters of bFGF/v-myb-cells. The number of cells, the cell volume, and the amount of haemoglobin were estimated during the 4-day differentiation in absence (AS, Ins) or presence of bFGF (AS, Ins+bFGF) or without factor (no). The cells remaining in bFGF are only shown as a control (bFGF).

bFGF/v-myb-cells [3] = assay: FGF dose response in cell proliferation assay (MTT / 3H-thymidine incorporation); details: for proliferative (mitogenic) response in the presence of heparin: heparin 5 μg/ml, 3H-thymidine incorporation, FIG. 5A; for stimulation of bFGF/v-myb-cell proliferation: serial dilutions starting at 100 ng/ml, without heparin, FIG. 4
Protocol: as §1
FGF—dose response measured by cell proliferation assay (MTT). Serial dilutions of aFGF and bFGF, respectively, starting at 100 ng/ml are shown.
(A) Dose response curve of aFGF and bFGF in the presence or absence of heparin is shown. Cell proliferation was measured by ^3H-thymidine incorporation assay.

[4] = system: blastoderm derived bFGF/v-myb-cells; assay: Growth factor requirements of blastoderm derived v-myb cells in culture; details: bFGF 25 ng/ml, SCF 100 ng/ml, TGFα 5 ng/ml; factor alone; FIG. 2B
Protocol: Blastoderm-derived cells (2 days incubation, Hamilton-stage HH 10-12) and bone marrow cells ([…]) were cocultivated for 2 days with a mitomycin C-treated virus or control (non-infected)-CEF in a CFU-E-medium (Beug et al., 1995, Methods Enzymol, 254, 41-76) containing bFGF (25 ng/ml, Promega), chicken-SCF (100 ng/ml; Bartunek et al., 1996, Cytokine, 8, 14-20), TGFα (5 ng/ml, Promega) or different combinations thereof, or no factors. After 2 days nonadherent cells were regenerated and cells were grown at 2×10^6 cells/ml. An outgrowth of myb transformed cells was routinely observed at day 5-7 and cell numbers were determined in regular time intervals using the cell counter and analyser system CASY-1 (Scharfe System, Reutlingen, Germany).
(B) Growth factor requirements of bFGF/v-myb-cells. The cumulative number of cells gown with various factors and combinations thereof are shown. Closed and open symbols refer to cells with an erythroid and myeloid phenotype, respectively.

[5] = differentiation induction in the presence of bFGF, FIG. 3

CN(C)CCCn1cc(C2=C(c3c[nH]c4ccccc34)C(=O)NC2=O)c2ccccc21 [GF109203X]
reduction of bFGF induced bFGF/v-myb cell proliferation (bFGF/v-myb-cells [1]): 30%

bFGF: growth factor bFGF (basis fibroblast growth factor)
ability to undergo terminal erythroid differentiation (bFGF/v-myb-cells [2]; differentiation induced by anaemic serum and insulin in the presence of 25 ng/ml bFGF): completely blocked
cell volume (bFGF/v-myb-cells [2]; [5]): approximately 500 μl
haemoglobin accumulation (bFGF/v-myb-cells [2]; [5]): did not accumulate haemoglobin
proliferative (mitogenic) response in the presence of heparin (bFGF/v-myb-cells [3]): no further increase
stimulation of bFGF/v-myb-cell proliferation (bFGF/v-myb-cells [3]): induced a maximal stimulation
phenotype / outgrowth of v-myb cells with growth factor [4]: proliferating erythroid bFGF/v-myb-cells were obtained only in the presence of bFGF

CC(C)=CCC/C(C)=C/CC/C(C)=C/CSc1ccccc1C(=O)O [FTS]
effect on bFGF induced bFGF/v-myb cell proliferation (bFGF/v-myb-cells [1]): neither Ras inhibitor FTS (inhibitor of famesylation) nor src family inhibitor PP-2 had any effect

COc1ccc2c(c1)CC[C@@H]1[C@@H]2CC[C@]2(C)[C@@H](NCCCCCCN3C(=O)C=CC3=O)CC[C@@H]12 [U-73122]
effect on bFGF induced bFGF/v-myb cell proliferation (bFGF/v-myb-cells [1]): dramatically reduced

TGFα: growth factor TGFα
phenotype / outgrowth of v-myb cells with growth factor [4]: outgrowth exclusively of myeloid cells

COC[C@H]1OC(=O)c2coc3c2[C@@]1(C)C1=C(C3=O)[C@@H]2CCC(=O)[C@@]2(C)C[C@H]1OC(C)=O [Worthmannin]
effect on bFGF induced bFGF/v-myb cell proliferation (bFGF/v-myb-cells [1]): ineffective

COc1cccc(-c2cc(=O)c3ccccc3o2)c1N [PD 98059]
effect on bFGF induced bFGF/v-myb cell proliferation (bFGF/v-myb-cells [1]): partially inhibitory only at higher concentrations

CC1(C)C(C=C(Cl)Cl)C1C(=O)OC(C#N)c1cccc(Oc2ccccc2)c1 (centres unmarked) [cypermethrin]
reduction of bFGF induced bFGF/v-myb cell proliferation (bFGF/v-myb-cells [1]): 45%

aFGF: acidic FGF, FGF-1, member of the FGF family
proliferative (mitogenic) response in the presence of heparin (bFGF/v-myb-cells [3]): clear enhancement
stimulation of bFGF/v-myb-cell proliferation (bFGF/v-myb-cells [3]): only marginally if at all

CN([C@@H](Cc1ccc(OS(=O)(=O)c2cccc3cnccc23)cc1)C(=O)N1CCN(c2ccccc2)CC1)S(=O)(=O)c1cccc2cnccc12 [KN-62]
reduction of bFGF induced bFGF/v-myb cell proliferation (bFGF/v-myb-cells [1]): Sixty per cent

cyclosporine A
reduction of bFGF induced bFGF/v-myb cell proliferation (bFGF/v-myb-cells [1]): 45%
